Experimental data: patent US4049660A, “N-substituted derivatives of 4 (N-piperazinylmethyl) spiro dibenzocycloheptadi- (or tri-) ene-5, 2-dioxolane (1,3) their method of preparation and their application in therapeutics” (Delalande S.A., priority 1971, dated 1977)
Where two headings read alike, the source gives them in different places.

How the values were obtained:
[1] = system: isolated duodenum of a rat (barium chloride); test: Spasmolytic: contraction by barium chloride of isolated duodenum of a rat
Procedure: Compounds of formula I, introduced in the survival medium, are capable of opposing the contacting action of barium chloride on the isolated duodenum of a rat. This activity is determined either by taking papaverine as the standard or by calculating the DE50 of the compound tested.

[2] = system: painful stretchings following intraperitoneal injection of acetic acid; test: Analgesic: painful stretchings following intraperitoneal acetic acid in mouse; type: in vivo; details: 100 mg/kg/PO, read-out: Percentage reduction in the number of painful stretchings
Text: The compounds of formula (I) administered orally to a mouse are capable of reducing the number of painful stretchings following the intraperitoneal injection of acetic acid.

[3] = system: ventricular fibrillations caused by inhaling chloroform; test: Antiarythmic: ventricular fibrillations caused by inhaling chloroform in mouse; type: in vivo; details: ip, intraperitoneal, read-out: Antagonism to fibrillations caused by chloroform with a mouse, DE50
Text: Administered intraperitoneally, the compounds of formula (I) are able to protect the mouse against ventricular fibrillations caused by inhaling chloroform.

[4] = system: gastric ulcers (Shay ulcers); test: Antiulcerous: gastric ulcers caused in a rat by ligature of the pylorus (Shay ulcers); type: in vivo; details: 50 mg/kg, intraduodenal
Procedure: Compounds of formula (I) administered intraduodenally reduce the size of gastric ulcers caused in a rat by ligature of the pylorus (Shay ulcers). As examples, the intradeuodenal administration of 50 mg/kg of the compounds of code numbers 72143 and 7251 bring about a 70% and 65% reduction respectively of the Shay ulcer.

urinary elimination = test: Diuretic: volume of urine in mouse; type: in vivo; details: 4 hours, versus controls, read-out: Percentage increase in urinary elimination; for change in vivo at 50 mg/kg: 50 mg/kg/PO
Procedure: The compounds of formula (I) administered orally to a mouse simultaneously with a volume of 1 ml of sodium chloride isotonic solute per 25 g of body weight are able to cause an increase of the volume of urine given compared with controls, this volume being measured for the 4 hours following administration.

[5] = Acute toxicity / mortality, oral, mice; type: in vivo; details: mouse, in vivo; for mortality: read-out: Percentage of mortality with mice; for LD50: mice, oral, Table XI, read-out: LD50 (mice)
Text: (§1) As is shown by the preceding results and by those given in Table XIV below, the difference between pharmacologically active doses and lethal doses is sufficiently great to allow the use of compounds of formula (I) in therapeutics.

mice = test: Acute toxicity / mortality, oral, mice; type: in vivo; details: oral; Table XII
Text: as §1

[6] = system: ptosis caused by reserpine; test: Anti-depressive: antagonism against ptosis caused by intravenous reserpine; type: in vivo; details: for ED50: po, Table XII, read-out: Antagonism against ptosis caused by reserpine, DE50
Procedure: (§2) In this regard, the compounds of formula I differ unexpectedly from the compounds of U.S. Pat. No. 3,726,900, as shown by comparative testing.
(§3) The anti-depressive properties of additional analog compounds were tested by the same tests. In these tests, the comparison compounds had the formula [drawing 28] The specific compounds tested and the test results are indicated in Table XIII.

[7] = system: local edema caused by carraghenine; test: Antiinflammatory: local plantar edema caused by carraghenine in rat; type: in vivo; details: 30 mg/kg/PO
Text: These properties bring about a reduction of the local edema, caused by injecting a rat under the plantar with a phlogogenic agent such as carraghenine, following oral administration of compounds of formula (I).

[8] = system: isolated ileum of a guinea pig (histamine); test: Antihistamine: contraction by histamine of isolated ileum of a guinea pig
Procedure: The compounds of formula (I) introduced in the survival medium are able to oppose the contracting action of histamine on the isolated ileum of a guinea pig. This activity is calculated by the DE50 of the tested compounds.

[9] = system: explorations in the escape enclosure; test: Sedative: number of explorations in the escape enclosure, mouse; type: in vivo; details: 100 mg/kg/PO
Procedure: The compounds of formula (I) administered orally to a mouse reduce the number of explorations in the escape enclosure. As examples, the administration of 100 mg/kg/PO of the compounds of code numbers 71562 and 72142 bring about a 40% reduction in the number of explorations in the escape enclosure in each case.

[10] = system: bronchoconstrictions provoked by serotonine; test: Antiserotonine: bronchoconstrictions provoked by intravenous serotonine in guinea pigs (Konzett and Rossler test); type: in vivo; details: Cavia porcellus, serotonine bronchoconstriction, read-out: Test of Konzett and Rossler DE50
Text: (§4) For purposes of comparison, compounds of the formula (I) were compared, as to their antiserotonine properties, with a respresentative sampling of compounds disclosed in U.S. Pat. No. 3,726,900. The comparison compounds tested have the formula [drawing 23]

[11] = system: lethal effect of yohimbine; test: Anti-depressive: potentialization of lethal effect of yohimbine; type: in vivo; details: at 100 mg/kg/PO
Procedure: as §2, §3

[12] = system: lethal effect of yohimbine; test: as above; type: in vivo; details: Table XII
[13] = system: cough caused by stimulation of the upper laryngeal nerve; test: Anti-cough: cough caused by stimulation of the upper laryngeal nerve in an anaesthetized cat; type: in vivo; details: 25 mg/kg/ID
[14] = system: respiratory depression caused by morphine; test: Respiratory analeptic: respiratory depression caused by morphine in anaesthetized guinea pig; type: in vivo; details: 5 mg/kg/IV
Procedure: The compounds of formula (I) administered intravenously to an anaesthetized guinea pig are capable of opposing respiratory depression caused by morphine. As an example, with a dose of 5 mg/kg/IV, compound 70358 increased respiratory frequency by 65%.

[15] = system: coronary vessels of the isolated heart of a guinea pig; test: Vasodilatory: flow in coronary vessels of isolated heart of a guinea pig; details: 0.5 μg/ml in perfusion liquid
Procedure: The compounds of formula (I) are able to increase the flow in the coronary vessels of the isolated heat of a guinea pig when they are added to the perfusion liquid of this organ. As an example, by adding 0.5 μg/ml of the compound code number 71562 to the perfusion liquid of the isolated heart of a guinea pig, a 45% increase in the flow of the coronary vessels was observed.

[16] = system: isolated fundus of rats (serotonine); test: Antiserotonine: contractions of the isolated fundus of rats provoked by serotonine; details: in vitro
Text: as §4

[17] = at 50 mg/kg/PO, result in words

## CN(C)C(=O)CN1CCN(CC2COC3(O2)c2ccccc2C=Cc2ccccc23)CC1 (centres unmarked) [compound 7251]
[1]
  DE50 (spasmolytic): 3.50 µg/mL
[2]
  inhibition in vivo at 100 mg/kg: 50%
[3]
  ED50: 100 mg/kg
[4]
  Reduction of the Shay ulcer: 65%
Urinary elimination
  change in vivo at 50 mg/kg: 45%
[5]; 2000 mg/kg/PO
  mortality: 0%
[5]
  LD50: > 2000 mg/kg
mice
  LD50: > 2000 mg/kg/P.O.
[6]; [17]
  Antagonism against ptosis caused by reserpine: Inactive

## CN1CCN(CC2COC3(O2)c2ccccc2C=Cc2ccccc23)CC1 (centres unmarked) [compound 72143]
[1]
  DE50 (spasmolytic): 3.75 µg/mL
[7]
  Percentage reduction of the edema: 70%
[4]
  Reduction of the Shay ulcer: 70%
[8]
  Antihistamine activity DE50: 0.25 µg/mL
Urinary elimination; 25 mg/kg/PO
  change in vivo at 25 mg/kg: 70%
[5]; 300 mg/kg/PO
  mortality: ~50%
[5]
  LD50: 300 mg/kg
[6]; [17]
  Antagonism against ptosis caused by reserpine: Inactive

## CCCNC(=O)CN1CCN(CC2COC3(O2)c2ccccc2C=Cc2ccccc23)CC1 (centres unmarked) [compound 72142]
[1]
  DE50 (spasmolytic): 2.50 µg/mL
[2]
  inhibition in vivo at 100 mg/kg: 70%
[3]
  ED50: 85 mg/kg
[8]
  Antihistamine activity DE50: 0.6 µg/mL
[9]
  Reduction in the number of explorations in the escape enclosure: 40%
Urinary elimination
  change in vivo at 50 mg/kg: 55%
[10]
  ED50: 0.6 mg/kg
[5]; 1650 mg/kg/PO
  mortality: ~50%
[5]
  LD50: 1650 mg/kg
[6]; at 100 mg/kg/PO
  Antagonism against ptosis caused by reserpine: Inactive
[11]
  Potentialization of lethal effect of yohimbine: 40%

## CN(C)CC1COC2(O1)c1ccccc1C=Cc1ccccc12 (centres unmarked) [compound 70312, reference compound]
[10]
  ED50: 0.43 mg/kg
[5]
  LD50: 480 mg/kg
[6]
  ED50: 13 mg/kg
[12]
  Potentialization of lethal effect of yohimbine, DE50: 46 mg/kg/PO

## CN1CCN(CC2COC3(O2)c2ccccc2CCc2ccccc23)CC1 (centres unmarked) [compound 70358]
[13]
  Reduction of cough, duration: > 60 mm
  Reduction of cough, intensity: 100%
[1]; relative to papaverine as the standard
  Spasmolytic activity: 1.5 × papaverine
[2]
  inhibition in vivo at 100 mg/kg: 43%
[14]
  Increase in respiratory frequency: 65%
[5]; 1000 mg/kg/PO
  mortality: ~50%
[5]
  LD50: 1000 mg/kg
[6]; at 100 mg/kg/PO
  Antagonism against ptosis caused by reserpine: Inactive
[11]
  Potentialization of lethal effect of yohimbine: 40%

## CN(C)CC1COC2(O1)c1ccccc1CCc1ccccc12 (centres unmarked) [compound 69257, reference compound]
[10]
  ED50: 0.4 mg/kg
[5]
  LD50: 550 mg/kg
[6]
  ED50: 35 mg/kg
[12]
  Potentialization of lethal effect of yohimbine, DE50: 10 mg/kg/PO

## O=C(CN1CCN(CC2COC3(O2)c2ccccc2C=Cc2ccccc23)CC1)N1CCCC1 (centres unmarked) [compound 71562]
[2]
  inhibition in vivo at 100 mg/kg: 47%
[15]
  Increase in the flow of the coronary vessels: 45%
[3]
  ED50: 125 mg/kg
[9]
  Reduction in the number of explorations in the escape enclosure: 40%
Urinary elimination
  change in vivo at 50 mg/kg: 70%
[16]
  Antagonisms against contractions of fundus of rat, DE50: 0.1 µg/mL
[5]; 2000 mg/kg/PO
  mortality: ~50%
[5]
  LD50: 2000 mg/kg
